Earlier results in patent EP4755392A1, “ORAL PREPARATION FOR IMPROVING MINIMAL ERYTHEMA DOSE” (Mitsubishi Corporation Life Sciences Limited, priority 2023, dated 2025).

Conditions: after 6 months, ingesting 250 mg or more

- blood glutathione amount increased: 17%
Structure (SMILES): N[C@@H](CCC(=O)N[C@@H](CS)C(=O)NCC(=O)O)C(=O)O [glutathione]
